Here are results for two compounds from patent publication US20030186269A1, “Ssa-56 kda polypeptide and its fragments and polynucleotides encoding said polypeptides and therapeutic uses” (priority 2000, published 2003).

The test system of one data set is chemokines. In words: Profile of secreted cytokines and chemokines in PBMC cultures. It is filed as cell-based, human. To be noted: PBMC cultures of HIV patients. From the text:
(§1) Specifically, MB inhibits by 70 to 100% the level of HIV viral protein p24 in the culture supernatants. This effect correlates with the level of expression of viral messenger RNAs (nonspliced and single-spliced).

The subject of data set [1] is human immunodeficiency virus (HIV). To be noted: macrophages and dendritic cells, PBMCs of infected patients; cited from earlier work.
The conditions of data set [2]: healthy volunteers and patients suffering from cancer; cited from earlier work.
Data set [3] deals with mRNA encoding the Ro/SSA-like protein. In words: Semiquantitative RT-PCR of the expression of the mRNA encoding Ro/SSA-like in PBMCs. The format is cell-based, human. The method, then:
PBMCs from patients (P) infected with HIV or from control healthy donors (C) are isolated, depleted of CD8+ (Dynabeads, Dynal) and stimulated with PHA (5 μg/ml) for 3 days. The cells are then treated or not treated with murabutide (10 μ/ml) in the presence of interleukin 2 (IL2) (10U/ml) in RPMI medium supplemented with 10% fetal calf serum (FCS) for 6 hours or 24 hours in a proportion of a minimum of 5×10^6 cells per condition.
After treatment, the RNA in the cells is extracted (RNAplus, Quantum-bioprobe), then treated with DNase (Boerhinger) and reverse transcribed (RT) using an oligo(dT) in the presence of the Mu-MLV reverse transcriptase (Superscript II, Gibco).
The quality of the RTs is verified by PCR (25 cycles) with primers specific for GAPDH (5′GCCATCAATGACCCCTTCATTGAC 3′) (SEQ ID No. 18) and (5′TGACGAACATGGGGGCATCAGCAG 3′) (SEQ ID No. 19) using 20, 100 and 500 ng of total RNA. The inventors then carried out RT-PCRs (35 cycles) with primers specific for the mRNA encoding Ro/SSA-like, (5′ GAAAGAGAGGTCGCAGAGGCCTGT 3′) (SEQ ID No. 20) and (5′ TGATAAGGCTGAGGAAGGGAAATG 3′) (SEQ ID No. 21). The number of amplification cycles was determined beforehand (35 cycles). The amplified fragments are visualized on agarose gel (1%) in the presence of ethidium bromide, and then quantified using the Imager master program (Pharmacia).
For each dilution, the given value for the gene studied is related to that of the GAPDH (ratio=R). For each patient and each time (6 h or 24 h), the R of the cells treated with murabutide is related to that of the untreated cells. The results are then expressed as % increase or inhibition of expression of the gene relative to the untreated cells. It should be noted that, for each dilution tested, the R can vary slightly; the mean for the Rs was produced by taking care to always be in the linear phase of amplification.

For data set [4] the following is noted: cited from earlier work.
The conditions of data set [5]: HIV+ patients, phase I and phase IIa; cited from earlier work.
A further data set concerns PBMCs. Put plainly: Toxicity (number of live cells) in the same PBMC cultures. To be noted: live cells unchanged at start, appear to increase at end of culturing. The format is cell-based, human.
Description: as §1

Another data set addresses Helicase. Put plainly: ELISA on coated recombinant protein, control at 1/100. Background: In an ELISA, binding on a coated surface is turned into a signal by an enzyme label.
Data set [6] addresses recombinant SSA-52 protein (human) (UniProt P19474). Described as above.
Chain of UniProt P19474 (P19474 whole entry): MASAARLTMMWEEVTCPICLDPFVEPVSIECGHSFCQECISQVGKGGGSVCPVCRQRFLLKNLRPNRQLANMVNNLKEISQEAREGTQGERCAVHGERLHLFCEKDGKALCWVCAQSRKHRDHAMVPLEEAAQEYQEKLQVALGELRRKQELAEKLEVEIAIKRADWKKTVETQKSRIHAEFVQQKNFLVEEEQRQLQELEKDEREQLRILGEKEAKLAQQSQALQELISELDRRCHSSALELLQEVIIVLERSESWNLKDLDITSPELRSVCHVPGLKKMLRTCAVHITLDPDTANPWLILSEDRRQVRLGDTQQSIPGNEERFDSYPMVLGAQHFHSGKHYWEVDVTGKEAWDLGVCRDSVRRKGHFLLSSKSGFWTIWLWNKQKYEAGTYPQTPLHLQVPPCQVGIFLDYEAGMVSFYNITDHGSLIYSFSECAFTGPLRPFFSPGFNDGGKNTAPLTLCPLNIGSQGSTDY
For another data set, the target named is HIV Nef (HIV). The data set is described as above.
For data set [7], the target named is recombinant SSB-48 protein (UniProt P05455). Described as above.
Chain of UniProt P05455 (P05455 whole entry): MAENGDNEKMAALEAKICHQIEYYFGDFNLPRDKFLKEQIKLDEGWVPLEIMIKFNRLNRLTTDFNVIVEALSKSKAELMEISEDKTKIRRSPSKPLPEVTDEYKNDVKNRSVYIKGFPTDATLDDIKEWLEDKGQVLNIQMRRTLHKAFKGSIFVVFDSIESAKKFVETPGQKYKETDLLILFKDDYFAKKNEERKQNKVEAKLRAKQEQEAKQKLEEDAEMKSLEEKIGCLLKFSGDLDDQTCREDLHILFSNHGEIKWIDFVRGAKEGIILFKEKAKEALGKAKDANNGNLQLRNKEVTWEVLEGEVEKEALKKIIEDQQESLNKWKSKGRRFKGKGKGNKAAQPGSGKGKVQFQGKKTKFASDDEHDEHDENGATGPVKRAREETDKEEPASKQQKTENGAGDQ
For data set [8], the target named is recombinant Ro/SSA-like (SSA-56) protein, complete 485 aa open reading frame, His-tagged, expressed in E. coli (human) (UniProt Q6AZZ1). The description is as above.
In the next data set the target is HIV Tat (HIV). The description is as above.
The target in data set [9] is recombinant SSA-60 protein (UniProt P10155). The description is as above.
Chain of UniProt P10155 (P10155 whole entry): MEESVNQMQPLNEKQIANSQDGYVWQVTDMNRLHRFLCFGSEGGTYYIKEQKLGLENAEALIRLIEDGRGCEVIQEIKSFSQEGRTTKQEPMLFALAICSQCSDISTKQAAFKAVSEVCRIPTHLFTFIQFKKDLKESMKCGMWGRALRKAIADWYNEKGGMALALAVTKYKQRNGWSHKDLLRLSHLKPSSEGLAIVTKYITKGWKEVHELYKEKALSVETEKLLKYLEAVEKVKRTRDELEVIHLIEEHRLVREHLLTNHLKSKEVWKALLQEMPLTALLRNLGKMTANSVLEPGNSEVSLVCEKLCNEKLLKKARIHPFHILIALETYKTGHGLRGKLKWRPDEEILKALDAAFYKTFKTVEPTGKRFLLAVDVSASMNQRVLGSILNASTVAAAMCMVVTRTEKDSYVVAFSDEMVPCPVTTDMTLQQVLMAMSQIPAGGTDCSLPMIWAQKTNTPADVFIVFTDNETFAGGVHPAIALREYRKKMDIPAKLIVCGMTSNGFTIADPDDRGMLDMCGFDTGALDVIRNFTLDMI

Take `CCCCOC(=O)[C@@H](CCC(N)=O)NC(=O)[C@H](C)NC(=O)[C@@H](C)O[C@H]1[C@H](O)[C@@H](CO)OC(O)[C@@H]1NC(C)=O` (some centres unmarked) [Murabutide]: in the data set with chemokines, the “induction of chemokines known to be inhibitors of HIV replication” value was “induces reproduction of chemokines”. Moreover, the HIV replication result in data set [1] is “inhibits human immunodeficiency virus (HIV) replication”. For the same compound, the “severe toxicity in clinical studies” value in [2] is “has not shown any severe toxicity”. In addition, the “inhibition of expression of the mRNA encoding Ro/SSA-like” value in data set [3] (PBMCs from HIV+ patients after stimulation with murabutide) is “significant inhibition”; in [3] (PBMCs from healthy controls, observed only in 3 cases out of 8), “inhibition is weaker”. In [3] (PBMCs from HIV+ patients, murabutide 10 μ/ml, 6 h or 24 h, 7 patients/10), the “inhibition of expression of the mRNA encoding Ro/SSA-like relative to untreated cells” value was “more than 40%”. In [4] (in vivo), the inflammatory reactions entry is recorded as “does not induce inflammatory reactions”. For the same compound, in data set [4] (unlike MDP and many other analogs), the pyrogenicity entry was “not pyrogenic”. For the same compound, the clinical tolerance result in data set [5] is listed as “good clinical tolerance”. For the same compound, the “toxicity, number of live cells” value in the data set with PBMCs is given as “lack of toxicity”.
Consider Control SP20, for which the Absorbance value at 1/100 with Helicase is 0.055 absorbance; in [6], 0.059 absorbance; with HIV Nef (HIV), 0.056 absorbance; in data set [7], 0.051 absorbance; in data set [8] it was 0.058 absorbance; with HIV Tat (HIV), 0.068 absorbance. Moreover, in [9], the Absorbance value at 1/100 is 0.068 absorbance.
